Data: publication PMC10046901, “Molecular Analysis of the Superior Efficacy of a Dual Epidermal Growth Factor Receptor (EGFR)-DNA-Targeting Combi-Molecule in Comparison with Its Putative Prodrugs 6-Mono-Alkylamino- and 6,6-Dialkylaminoquinazoline in a Human Osteosarcoma Xenograft Model” (Cells, 2023)

Legend:
[1] = Plasma and tumor metabolism by LC-MS and LC-MS/MS; type: in vivo, NSG male mice; details: 3 h after administration; for in vivo metabolism of administered drug (LC-MS): tumor and plasma; for in vivo metabolism of administered drug (LC-MS) / concentration of released ZR2002 in treated tumors relative to ZR2002-treated tumors: 80 mg/kg oral; for concentration of released ZR2002 in treated tumors relative to ZR2002-treated tumors: tumor, N = 4
Method: In order to study the drug pharmacokinetics, 1 last dose (the 11th dose) was administered 3 h prior to sacrifice and after a break of 5 days from the previous drug administration.
At the end of the study, the mice were sacrificed, and the plasma and tumors were collected. The plasma was stored at −80 °C, and the tumor tissues were transversely cut into 2 parts: 1 was immediately frozen in liquid nitrogen and stored at −80 °C for Western blots and LC-MS analysis; the other was fixed in 4% paraformaldehyde and used for histology.
Individual stock solutions of ZR2002 and Nitro-RB10 (IS) were prepared in DMSO at 10 mg/mL and, after, in MeOH at a concentration of 100 μg/mL. Intermediate dilutions were prepared using ACN:water (35:65, v:v). All stock and working solutions were stored at −20 °C and brought to room temperature before use.
The dynamic range for the calibration curve ranged from 0.4 to 150 ng/mL, including 0.4, 1, 5, 10, 50, 80, 100 and 150 ng/mL in plasma and tumor matrix. These standards were prepared by spiking an appropriate volume of a standard spiking solution into the blank extracted plasma or tumor and vortexing. A total of 3 levels of QC samples were run during the analysis, including a low QC of 1 ng/mL, a mid QC of 10 ng/mL and a high QC of 100 ng/mL. These QC samples were prepared by spiking an appropriate volume of the spiking solution into the matrix blank. An appropriate volume of the IS spiking solution was then spiked into the calibration standards and QC samples to generate a final IS concentration of 15 ng/mL in the matrix. All samples were vortexed gently, completing the sample preparation process.
An amount of 50 μL of each plasma sample was deproteinized with 200 µL of cold ACN. The samples were mixed for 10 s, shaken automatically for 10 min and centrifuged for 10 min at 15,000 rpm (21,130 rcf) at 4 °C. After centrifugation, the supernatants were loaded into Captiva-Enhanced Matrix Removal (EMR)-Lipid cartridges (1.0 mL; 40 mg; Agilent, Santa Clara, CA, USA) and settled for 5 min. The supernatants were eluted by applying a positive pressure (2 psi for 2 min) using a positive pressure manifold (PPM 96 processor, Agilent Techn.). The cartridges were washed with ACN:water (8:2, v:v) 100 μL, at 2–4 psi for 2 min, followed by a 1-min period of high pressure (6–9 psi) to drain the cartridges. The elutes were transferred to new tubes and dried under vacuum using a Centrivap sample concentrator (Centrivap Complete^TM, Labconco Corporation, Kansas City, MO, USA) at room temperature. The dried samples were stored at −20 °C before LC-MS analysis. On the day of analysis, the samples were reconstituted in 100 µL of MeOH, vortexed for 10 s, sonicated for 5 min (sonic bath, Symphony, VWR International, Radnor, PA, USA) and centrifuged for 5 min at 15,000 rpm. The supernatants were diluted 60 times in 35% ACN, and an appropriate volume of the IS spiking solution was then spiked into the samples to generate a final IS concentration of 15 ng/mL. At the end of the process, all samples were diluted 120 times. These final solutions were transferred to autosampler vials (350 µL, Thermo Fisher Scientific, Waltham, MA, USA), and 10 µL of each was injected into the LC-MS system.
A weighted piece of tumor was crushed in a mortar with liquid nitrogen. To the tumor powder, 150 μL of water was added before deproteinizing the mixture with 600 µL of cold ACN. The samples were mixed for 10s, sonicated with ice in a sonication bath for 30 min to 1 h (Sonicate bath, VWR, International, Radnor, PA, USA) and centrifuged for 10 min at 15,000 rpm (21,130 rcf) at 4 °C (Centrifuge 5424 R, Eppendorf). After centrifugation, the supernatants were loaded into Captiva-Enhanced Matrix Removal (EMR)-Lipid cartridges (1.0 mL; 40 mg; Agilent) and settled for 5 min. The supernatants were eluted by applying a positive pressure (2 psi for 2 min) using a positive pressure manifold (PPM 96 processor, Agilent Techn.). […]

MNNG/HOS = assay: cells; type: cell-based; details: 120 h, read-out: IC50 growth inhibition

With ClCCN(CCCl)c1ccc2ncnc(Nc3cccc(Br)c3)c2c1 [JS61] the “in vivo metabolism of administered drug (LC-MS)” value (“in vivo metabolism” below) [1] was “remained largely intact”, the “concentration of released ZR2002 in treated tumors relative to ZR2002-treated tumors” value [1] was “five times lower” and the IC50 (MNNG/HOS) was 5.86 ± 0.15 µM.
For CN(CCCl)c1ccc2ncnc(Nc3cccc(Br)c3)c2c1 [JS84], the “in vivo metabolism” value [1] was “partially intact and largely converted into RB10-Methyl (peak 7), RB10 (1) and RB10-N-Acetyl (2)”, the “concentration of released ZR2002 in treated tumors relative to ZR2002-treated tumors” value [1] was “five times lower” and the “concentrations of ZR2002 metabolite in treated tumors and plasma vs ZR2002-treated” value ([1]; tumors and plasma) was “significantly lower”. For the same compound, the IC50 (MNNG/HOS) was 0.88 ± 0.43 µM.
With ClCCNc1ccc2ncnc(Nc3cccc(Br)c3)c2c1 [ZR2002] the “in vivo metabolism” value [1] was “partially metabolized into its deschloroethyl metabolite “RB10” (peak 1) and RB10-N-acetyl (peak 2)” and the IC50 (MNNG/HOS) was 0.31 ± 0.09 µM.
